Test results published in US4358444A, “2,4-Dioxacyclohexanone derivative” (Dr. L. Zambeletti S.p.A., priority 1981, dated 1982).
Where two headings read alike, the source gives them in different places.

What was measured:
[1] = tested on: carrageenin induced edema; experiment: Carrageenin induced edema test (antinflammatory activity); format: in vivo, rats; conditions: for reduction of the edema / antiinflammatory action compared with acetylsalicylic acid (in words): oral, equimolecular dosages
Excerpt: The antinflammatory properties of MR 693 have been investigated by means of the carrageenin induced edema test in rats, by administering the compound of the invention by oral route and using acetylsalycilic acid as the comparison substance, at equimolecular dosages.

[2] = tested on: yeast induced hypertermia; experiment: Yeast induced hypertermia test (antipyretic activity); format: in vivo, rat
Excerpt: This activity has been investigated by means of the yeast induced hypertermia test in the rat, taking again acetylsalycilic acid, administered at equimolecular dosages, as the comparison substance.

[3] = tested on: gastric mucosa; experiment: Gastrolesive activity after oral administration; format: in vivo, rats; conditions: for gastric tolerability / gastrolesive effect (in words): oral
Method: MR 693 and acetylsalycilic acid as the comparison substance were administered by oral route to rats fastened from at least 18 hours.
After six hours from the beginning of the experiment, the rats were sacrificed and the stomachs were opened and examined in order to verify the presence of lesions on the gastric mucosa.

[4] = format: in vivo; conditions: for distribution / route of excretion/elimination: metabolite
[5] = tested on: citric acid aerosol induced cough; experiment: Citric acid aerosol induced cough test (antitussive activity); conditions: for antitussive activity compared with codeine (in words): 500 mg/kg oral vs codeine 25 mg/kg oral, general statement in b2
[6] = tested on: rats; experiment: Subacute toxicity in rats, oral, four weeks; format: in vivo; conditions: four consecutive weeks
Excerpt: (§1) Subacute toxicity studies have been carried out on rats and dogs, by administering MR 693 by oral route for four consecutive weeks.
(§2) The parameters which have been taken into consideration are as follows:
(§3) glycosuria, proteinuria, albuminuria and haematuria
(§4) weight of the principal organs

[7] = tested on: esterase; experiment: In vitro metabolism (enzymatic hydrolysis); format: in vitro ADME
Excerpt: Studies have been performed both in vitro and in vivo.

[8] = tested on: dogs; experiment: Chronic toxicity in dogs, oral and rectal, 24 weeks; format: in vivo
Excerpt: (§5) Chronic toxicity studies have been carried out on rats, administered by oral route with MR 693 for 24 consecutive weeks, and dogs, administered by oral and rectal route with the compound of the invention again for 24 weeks.
as §2
(§6) biochemical examination of the blood glycosuria, proteinuria, haematuria, albuminuria
(§7) weight and hystological control of the principal organs;

[9] = Toxicity, overall statement (acute, subacute and chronic); format: in vivo
Excerpt: (§8) Acute toxicity tests have been carried out in mice rats, by administering the compound of the invention by oral and intraperitoneal route.
as §1, §5

[10] = tested on: rats; experiment: Theratogenesis studies in rats; format: in vivo; conditions: oral, all along the pregnancy
Excerpt: (§9) Theratogenesis studies have been carried out on rats and rabbits, which have been treated by oral route with MR 693 all along the duration of the pregnancy. […]
(§10) number of pregnant females […]
(§11) initial body weight/end body weight (of the mothers) […]
(§12) average number of lived foetuses total number of dead foetuses total number of re-absorptions average weight of lived foetuses

[11] = tested on: rats; experiment: Chronic toxicity in rats, oral, 24 weeks; format: in vivo
Excerpt: as §5, §2, §6, §7

[12] = Acute toxicity in mice; conditions: in vivo, po; mouse, os; read-out: DL50 (the source's name)
Excerpt: as §8

[13] = Acute toxicity in rats; conditions: in vivo, rat, read-out: DL50 (the source's name)
Excerpt: as §8

[14] = tested on: dogs; experiment: Subacute toxicity in dogs, oral, four weeks; format: in vivo; conditions: four consecutive weeks
Excerpt: as §1, §2, §3, §4

[15] = tested on: rabbits; experiment: Theratogenesis studies in rabbits; format: in vivo; conditions: oral, all along the pregnancy
Excerpt: as §9, §10, §11, §12

[16] = 250 mg/kg os (equimolecular dosage)
[17] = listed as 3-(2-methoxy-phenoxy)-3-methyl-benzo-2,4-dioxacyclohexanone
[18] = 400 mg/kg os (equimolecular dosage)

## CC(=O)Oc1ccccc1C(=O)O [Acetylsalycilic acid, acetylsalicylic acid, reference compound]
[1]; [16]
  % Inhibition of the edema: 33%
[2]; [16]
  % Inhibition (yeast induced hypertermia): 103%
[3]; 250 mg/kg os, six hours (equimolecular dosage)
  Average diameter of the lesions: 3.7 ± 0.8 mm
[4]; in vivo
  concentration observed in the lungs compared with plasma and liver: higher than those observed in the plasma and the liver
[4]; after administration of MR 693
  distribution: enter the systemic circulation

## COc1ccc2c3c1O[C@H]1[C@@H](O)C=C[C@H]4[C@@H](C2)N(C)CC[C@@]341 [Codeine, codeine, reference compound]
[5]; 12.5 mg/kg i.p.
  % Inhibition of cough-strokes: 93.7%
[5]; 25 mg/kg os
  % Inhibition of cough-strokes: 76.7%
[5]; Cavia porcellus, ip, read-out: % Inhibition of cough-strokes, 12.5 mg/kg i.p.
  inhibition at 12.5 mg/kg: 93%

## COc1ccccc1OC1(C)OC(=O)c2ccccc2O1 (stereo not drawn) [MR 693, 3-(2-methoxy-phenoxy)-3-methyl-benzo-2,4-dioxacyclohexanone]
[6]
  alterations or malformations (subacute toxicity): in no case alterations or malformations ascribable to the treatment
[5]; 500 mg/kg oral
  reduction over the controls of the number of cough-strokes (in words): marked reduction
[5]
  antitussive activity compared with codeine (in words): better than that displayed, under the same conditions, by an oral dosage of 25 mg/kg of codeine
[5]; [17]
  antitussive activity compared with codeine (in words): higher than that of codeine
[5]; 500 mg/kg os
  % Inhibition of cough-strokes: 84.3%
[5]; Cavia porcellus, ip, read-out: % Inhibition of cough-strokes
  inhibition at 100 mg/kg: 100%
[1]; [18]
  % Inhibition of the edema: 30%
[1]
  reduction of the edema / antiinflammatory action compared with acetylsalicylic acid (in words): marked reduction of the edema
[1]; [17]
  reduction of the edema / antiinflammatory action compared with acetylsalicylic acid (in words): practically is the same as that possessed by acetylsalicylic acid
[2]; [18]
  % Inhibition (yeast induced hypertermia): 86%
[2]; oral, equimolecular dosages, listed as 3-(2-methoxy-phenoxy)-3-methyl-benzo-2,4-dioxacyclohexanone
  antipyretic activity compared with acetylsalicylic acid (in words): only slightly lower than that displayed, again, by acetylsalicylic acid
[7]
  enzymatic hydrolysis (metabolites): enzymatically hydrolyzed to acetylsalycilic acid and guaiacol
  organs displaying the highest esterase activity: the lungs and the kidneys
[8]
  alteration of the mucosae of the gastro-intestinal tract: did not show any alteration of the mucosae
  alterations or anatomo-pathological states (chronic toxicity): no alterations or particularly significant anatomo-pathological states
[3]; 100 mg/kg os, six hours
  Average diameter of the lesions: 0 mm
[3]; 400 mg/kg os, six hours (equimolecular dosage)
  Average diameter of the lesions: 0 mm
[3]
  gastric tolerability / gastrolesive effect (in words): perfectly tolerated at gastric level
[3]; [17]
  gastric tolerability / gastrolesive effect (in words): complete absence of any gastrolesive effect
[9]; [17]
  toxicity (in words): almost negligible toxicity (both acute, subacute and chronic)
[9]; listed as mr 693
  toxicity (in words): very little toxic compound
[10]
  theratogenesis: alterations: no alteration
  theratogenesis: number of litters alive: no variation of the number of litters alive
  theratogenesis: somatic or skeletal malformations: neither somatic not skeletal malformations have been observed
[11]; 24 consecutive weeks
  alterations or anatomo-pathological states (chronic toxicity): no alterations or particularly significant anatomo-pathological states
[11]; 24 weeks
  alteration of the mucosae of the gastro-intestinal tract: did not show any alteration of the mucosae
[12]
  LD50: > 3000 mg/kg
[13]; ip, i.p.
  LD50: 1750 mg/kg
[13]; po, os
  LD50: > 3000 mg/kg
[4]; in vivo
  pulmonary tropism: relative better pulmonary tropism
[4]; in vivo, po
  absorption: absorbed as such for the major part
  metabolites in vivo: hydrolyzed to acetylsalycilic acid, salycilic acid and guaiacol
[14]
  alterations or malformations (subacute toxicity): in no case alterations or malformations ascribable to the treatment
[15]
  theratogenesis: alterations: no alteration
  theratogenesis: number of litters alive: no variation of the number of litters alive
  theratogenesis: somatic or skeletal malformations: neither somatic not skeletal malformations have been observed

## COc1ccccc1O [guaiacol]
[4]; assumed from lung concentrations and pulmonary tropism of guaiacol
  pulmonary tropism: marked pulmonary tropism
[4]; in vivo, after oral administration of MR 693
  absorption: mainly absorbed by pre-systemic route
[4]; after administration of MR 693
  distribution: enters the lungs through the lymphatic vessels
  route of excretion/elimination: eliminated by respiratory route

## O=C(O)c1ccccc1O [salycilic acid]
[4]; after administration of MR 693
  concentration observed in the lungs compared with plasma and liver: higher than those observed in the plasma and the liver
  distribution: enter the systemic circulation
  route of excretion/elimination: excreted by urinary route
